Reference: patent US11925632B2, “Isoquinoline derivatives for use in treating GLUT1 deficiency syndrome” (GLIAPHARM SA, priority 2019, dated 2024)
Entries after “also recorded” stand apart in the source; their conditions may differ.

Experiments:
[1] = test system: astrocytes transfected with scramble siRNA; experiment: 2-deoxyglucose (2DG) uptake, scramble siRNA astrocytes; assay type: cell-based, mouse; conditions: 30 min treatment, 1 or 10 μM, vs vehicle
Description: (§1) Astrocytes grown on 12-well plates and transfected with either scramble siRNA or GLUT1 siRNA were used. 1 day after having replaced transfection medium (DIV13), 2DG uptake was measured after treatment for 30 min with Vehicle (0.1% DMSO) or with the compound of the invention (1) (concentrations of 1 or 10 μM). During treatment, 1 mM 2DG was added to the medium for assessment of 2DG uptake. At the end of the stimulation, medium was removed and replaced with 150 μl NaOH 0.1M, and stored at −20° C. After thawing, cells were collected using cell scraper and heated for 40 min at 85° C. Then, 150 ul HCl 0.1M and TAE buffer 200 mM was added to each condition. 20 μl were added to a transparent 96-well plate and 2DG was quantified by addition of a reaction solution containing 50 mM TAE, 50 mM KCl, 0.02% BSA, 0.1 mM NADP, 0.2 U/ml diaphorase, 2 mM resazurin and 20 U/ml glucose-6-phosphate dehydrogenase. Concentration of 2DG in samples were calculated by comparison with standard curve of deoxy-glucose-6-phosphate ranging from 0 to 1 nmoles.
(§2) Scramble and GLUT1 siRNA sequences were as following:
(§3) Cells were grown in transfection medium for 3 days at 37° C. in a humidified atmosphere containing 5% CO2/95% air. […]
(§4) 2DG uptake after treatment with Veh or compound of the invention (1) was measured in astrocytes transfected with scramble siRNA or GLUT1 siRNA (FIG. 4A).

[2] = test system: astrocytes transfected with GLUT1 siRNA; experiment: 2-deoxyglucose (2DG) uptake, GLUT1 siRNA astrocytes (cellular model of GLUT1-DS); assay type: cell-based, mouse; conditions: 30 min treatment, 1 or 10 μM, vs vehicle
Description: as §1, §2, §3, §4

[3] = test system: G93A SOD1 transgenic mice; experiment: SOD1 G93A mouse ALS model (grip test, survival); assay type: in vivo
Description: For pharmacodynamics (FIG. 5) and cognition (FIG. 7) experiments, adult male C57Bl/6J wild-type mice weighting 18-28 g (8 weeks of age) were used (Charles River). For ALS mouse models (FIG. 6), G93A SOD1 transgenic male and female mice on B6.SJL1-Gur/J background were used (Jackson Laboratory).
Animals were housed in groups of 3-5 in polypropylene cages (30×40×15 cm) with wire mesh top in a temperature (22±2° C.) and humidity (55±15%) controlled environment on a 12 hour light cycle (07.00-19.00 h lights on), except after surgeries when animal were housed individually. […]
Transgenic mice on B6.SJL1-Gur/J background overexpressing the human mutated gene G93A SOD1 were used. […] F1 pups were genotyped after ear punching at weaning, using quantitative PCR (qPCR), which allowed determining the number of SOD1 copies in each mouse. […] Each mouse's weight was recorded every day throughout the entire treatment, while neuromuscular function was measured once a week. […]
The experiment was conducted in a room with a low light intensity (30 lux) to reduce stressful environment. […] Mice ability to grip the grid (time [s]) was measured in order to assess for their muscle strength and coordination. […]

GLUT1-DS mice = experiment: Cerebral extracellular lactate and glucose biosensors, GLUT1-DS transgenic mice; assay type: in vivo, mouse; conditions: medial prefrontal cortex, 10 mg/kg and/or 100 mg/kg oral, AUC ratio vs vehicle
Source text: Transgenic mice on 129/SvJ genetic background in which GLUT1 has been knocked-down (GLUT1-DS mice) were used (Wang et al., […], Human Molecular Genetics, 15(7)). Mating colonies were composed of wild-type female mice and GLUT1-DS male mice, or GLUT1-DS female mice and wild-type male mice. F1 pups were genotyped after ear punching at weaning using PCR to determine genotype. Mice of 2 to 3 months of age were used.
Cerebral extracellular levels of lactate and glucose were monitored in vivo in GLUT1-DS transgenic male mice and wild-type (WT) male littermates using lactate and glucose biosensors (Pinnacle Technology), according to the manufacturer's instructions. […] After surgery, mice were monitored closely and received analgesic treatment for at least 4 days. After mice had fully recovered from surgery, compounds of the invention of vehicle were administered per os as previously described and cerebral levels of extracellular lactate or glucose were dynamically recorded for 6 hours using lactate or glucose biosensors, respectively. […] Concentration of cerebral extracellular lactate or glucose was calculated from lactate or glucose probe electric signals, respectively, using post-calibration values, as described by manufacturer. […]

Structure (SMILES): COc1cc2ccnc(Nc3ccc(OC(F)(F)F)cc3)c2cc1OC [Example 1, 6,7-dimethoxy-N-(4-(trifluoromethoxy)phenyl)isoquinolin-1-amine]
- 2DG uptake [1]: significantly enhances 2DG uptake
- 2DG uptake [2]: restored; also recorded: significantly enhances 2DG uptake
- Muscle function (grip test), onset of symptoms ([3]; 10 mg/kg oral daily from post-natal day 30, measured weekly until 16 weeks of age): delayed the onset of the symptoms
- Survival (life span, Kaplan-Meier) ([3]; 10 mg/kg oral daily from post-natal day 30, vs vehicle): significantly increased life span
- Extracellular glucose levels in the brain (GLUT1-DS mice): significantly increases
- Extracellular lactate levels in the brain (GLUT1-DS mice): significantly increases
